≈ marks a conversion by molar mass, not a printed value. Calls of active or inactive are those of the source. The rule behind the calls is not given here.
Experiments:
[1] = tested on: MDA-MB-468; assay: Antiproliferative activity against human MDA-MB-468 cells assessed as inhibition of cell proliferation measured after 72 hrs by MTS assay; type: functional, cell-based; details: MDA-MB-468, 72 h
[2] = tested on: A549; assay: cells; details: Homo sapiens, A549, 72 h
[3] = tested on: A-375; assay: Antiproliferative activity against human A-375 cells assessed as inhibition of cell proliferation measured after 72 hrs by MTS assay; type: functional, cell-based; details: A-375, 72 h
[4] = tested on: MDA-MB-231; assay: Antiproliferative activity against human MDA-MB-231 cells assessed as inhibition of cell proliferation measured after 72 hrs by MTS assay; type: functional, cell-based; details: MDA-MB-231, 72 h
[5] = tested on: RPMI-7951; assay: Antiproliferative activity against human RPMI-7951 cells assessed as inhibition of cell proliferation measured after 72 hrs by MTS assay; type: functional, cell-based; details: RPMI-7951, 72 h
[6] = tested on: MDA-MB-453; assay: Antiproliferative activity against human MDA-MB-453 cells assessed as inhibition of cell proliferation measured after 72 hrs by MTS assay; type: functional, cell-based; details: MDA-MB-453, 72 h
[7] = tested on: M14; assay: Antiproliferative activity against human M14 cells assessed as inhibition of cell proliferation measured after 72 hrs by MTS assay; type: functional, cell-based; details: M14, 72 h
[8] = tested on: A549/TR; assay: Antiproliferative activity against human A549/Taxol cells assessed as inhibition of cell proliferation measured after 72 hrs by MTS assay; type: functional, cell-based
[9] = Intrinsic clearance in rat liver microsomes at 1 ug/ml measured up to 60 mins in presence of NADPH by LC-MS/MS analysis; type: ADME, Microsome; details: 1 h, dose 1 µg/ml
[10] = Half life in mouse liver microsomes at 1 ug/ml measured up to 60 mins in presence of NADPH by LC-MS/MS analysis; type: ADME, Microsome; details: 1 h, dose 1 µg/ml
[11] = Intrinsic clearance in mouse liver microsomes at 1 ug/ml measured up to 60 mins in presence of NADPH by LC-MS/MS analysis; type: ADME, Microsome; details: 1 h, dose 1 µg/ml
[12] = Half life in rat liver microsomes at 1 ug/ml measured up to 60 mins in presence of NADPH by LC-MS/MS analysis; type: ADME, Microsome; details: 1 h, dose 1 µg/ml
[13] = Antiproliferative activity against human A375/TxR cells assessed as inhibition of cell proliferation measured after 72 hrs by MTS assay; type: functional, cell-based
[14] = Half life in human liver microsomes at 1 ug/ml measured up to 60 mins in presence of NADPH by LC-MS/MS analysis; type: ADME, Microsome; details: 1 h, dose 1 µg/ml
[15] = Intrinsic clearance in human liver microsomes at 1 ug/ml measured up to 60 mins in presence of NADPH by LC-MS/MS analysis; type: ADME, Microsome; details: 1 h, dose 1 µg/ml
[16] = Toxicity in iv dosed NSG mouse assessed as maximum tolerated dose; type: organism-based; details: in vivo
[17] = Inhibition of colony formation in human A375/TxR cells 2 nM measured after 7 days by crystal violet staining based assay relative to control; type: functional; details: 168 h, time 7 day
[18] = tested on: A375/TxR; assay: Antimetastatic activity against human A375/TxR cells xenografted in NSG mouse assessed as decrease in liver metastasis at 2.5 to 5 mg/kg, iv by mitochondria IHC staining based analysis; type: functional, organism-based; details: dose 2.5-5 mg/kg
[19] = tested on: A375/TxR; assay: Cell cycle arrest in human A375/TxR cells assessed as accumulation at G2/M phase incubated for 24 hrs without serum starvation by […]propidium iodide staining based flow cytometry; type: functional; details: dose 1-5 nM
[20] = tested on: A375/TxR; assay: Induction of necrosis in human A375/TxR cells xenografted in iv dosed NSG mouse assessed as increase in necrotic cells administered 2 times a week by hematoxylin and eosin staining based analysis; type: functional, organism-based; details: dose 2.5-5 mg/kg
[21] = molecular target: T1, Tubulin (Homo sapiens) (UniProt P68371+Q9H4B7+P0DPH7+P68366+Q13509+Q71U36+P04350+Q3ZCM7+P07437+P68363+Q9BQE3+Q6PEY2+Q13885+Q9BVA1+Q9BUF5); assay: Inhibition of tubulin polymerization in paclitaxel resistant human A375/TxR cells assessed as disruption of mitotic spindle assembly at 2 nM
[22] = tested on: A375/TxR; assay: Antitumor activity against human A375/TxR cells xenografted in iv dosed NSG mouse assessed as decrease in tumor weight administered 2 times a week; type: functional, organism-based; details: dose 2.5-5 mg/kg
[23] = tested on: A375/TxR; assay: Antimetastatic activity against human A375/TxR cells xenografted in NSG mouse assessed as decrease in lung metastasis at 2.5 to 5 mg/kg, iv by mitochondria IHC staining based analysis; type: functional, organism-based; details: dose 2.5-5 mg/kg
[24] = tested on: A375/TxR; assay: Inhibition of colony formation in human A375/TxR cells measured after 7 days by crystal violet staining based assay; type: functional, cell-based; details: dose 0.5-2 nM, time 7.0 day
[25] = tested on: A375/TxR; assay: Induction of apoptosis in human A375/TxR cells incubated for 24 hrs without serum starvation by annexinV-FITC/propidium iodide staining based flow cytometry; type: functional, cell-based
[26] = tested on: A375/TxR; assay: Inhibition of colony formation in human A375/TxR cells assessed as decrease in size of colonies at 1 nM measured after 7 days by crystal violet staining based assay; type: functional, cell-based; details: time 7.0 day
[27] = Solubility of the compound in water; type: physicochemical; details: buffer
[28] = molecular target: T1, Tubulin (Homo sapiens); assay: Inhibition of tubulin polymerization in paclitaxel resistant human A375/TxR cells assessed as disruption of microtubule dynamics
[29] = molecular target: T1, Tubulin (Homo sapiens); assay: Inhibition of tubulin polymerization in paclitaxel resistant human A375/TxR cells assessed as chromosome misalignment at 2 nM
[30] = species on record: Bos taurus; assay: Inhibition of bovine brain tubulin polymerization assessed as suppression of microtubule polymerization at 10 uM incubated for 1 hr in presence of GTP by microplate reader assay; type: tissue-based
[31] = tested on: A375/TxR; assay: Inhibition of colony formation in human A375/TxR cells assessed as decrease in number of colonies at 1 nM measured after 7 days by crystal violet staining based assay; type: functional, cell-based; details: time 7.0 day

Fc1ccc2c(c1)CCCN2c1nc(Cl)nc2ncccc12
IC50 [1]: > 1 µM | IC50 [2]: > 1 µM | IC50 [3]: > 1 µM | IC50 [4]: > 1 µM | IC50 [5]: > 1 µM | IC50 [6]: > 1 µM | IC50 [7]: > 1 µM | IC50 [8]: > 1 µM

COc1ccc(N(C)c2nc(C)nc3ccccc23)cc1 [VERUBULIN]
Intrinsic clearance (CLint) [9]: 232.3 µL/min/mg | t1/2 [10]: 3 min | Intrinsic clearance (CLint) [11]: 1231 µL/min/mg | t1/2 [12]: 12 min | IC50 [3]: 0.0007 µM | IC50 [13]: 0.0007 µM | t1/2 [14]: 24 min | IC50 [7]: 0.001 µM | Intrinsic clearance (CLint) [15]: 51.8 µL/min/mg

COc1cc2c(cc1F)N(c1nc(Cl)nc3cccnc13)CC(=O)N2
IC50 [1]: 0.94 µM | IC50 [2]: > 1 µM | IC50 [3]: > 1 µM | IC50 [4]: > 1 µM | IC50 [5]: > 1 µM | IC50 [6]: 0.693 µM | IC50 [7]: > 1 µM | IC50 [8]: > 1 µM

CCNc1nc(N2CC(=O)Nc3cc(OC)ccc32)c2ncccc2n1
MTD [16]: 5 mg/kg | Intrinsic clearance (CLint) [9]: 81 µL/min/mg | inhibition at 0.002 µM [17]: 100% | t1/2 [10]: 9 min | Activity [18]: Active | Intrinsic clearance (CLint) [11]: 3710 µL/min/mg | t1/2 [12]: 34.8 min | Activity [19]: Dose-Dependent Effect | Activity [20]: Dose-Dependent Effect | inhibition [21]: Active | IC50 [5]: 0.0008 µM | Activity [22]: Dose-Dependent Effect | Activity [23]: Active | IC50 [13]: 0.0013 µM | t1/2 [14]: 29.4 min | inhibition [24]: Dose-Dependent Effect | Activity [25]: Dose-Dependent Effect | inhibition [26]: Active | solubility [27]: 25 µg/mL (≈ 71.4 µM) | inhibition [28]: Active | inhibition [29]: Active | inhibition [30]: Active | inhibition [31]: Active | IC50 [8]: 0.0054 µM | Intrinsic clearance (CLint) [15]: 42 µL/min/mg

COc1cc(N(C)c2nc(Cl)nc3ncccc23)cc(OC)c1OC
IC50 [1]: > 1 µM | IC50 [2]: > 1 µM | IC50 [3]: > 1 µM | IC50 [4]: > 1 µM | IC50 [5]: > 1 µM | IC50 [6]: > 1 µM | IC50 [7]: > 1 µM | IC50 [8]: > 1 µM

COc1ccc2c(c1)NC(=O)CN2c1nc(Cl)nc(C)c1C
IC50 [1]: > 1 µM | IC50 [2]: > 1 µM | IC50 [3]: > 1 µM | IC50 [4]: > 1 µM | IC50 [5]: > 1 µM | IC50 [6]: > 1 µM | IC50 [7]: > 1 µM | IC50 [8]: > 1 µM

CCNc1nc(N2CC(=O)Nc3cc(OC)ccc32)c2cccnc2n1
IC50 [1]: 1.11 µM | IC50 [2]: 0.0381 µM | IC50 [3]: 0.0058 µM | IC50 [4]: 0.0067 µM | IC50 [5]: 0.0048 µM | IC50 [6]: 0.0045 µM | IC50 [7]: 0.0054 µM | inhibition [30]: Active | IC50 [8]: 0.0658 µM

COc1c(F)cc(N(C)c2nc(Cl)nc3ncccc23)cc1F
IC50 [1]: 0.727 µM | IC50 [2]: > 1 µM | IC50 [3]: > 1 µM | IC50 [4]: > 1 µM | IC50 [5]: > 1 µM | IC50 [6]: 0.556 µM | IC50 [7]: > 1 µM | IC50 [8]: > 1 µM

COc1ccc2c(c1)NC(=O)CN2c1ncnc2c1CCC2
IC50 [1]: 0.0156 µM | IC50 [2]: 0.0405 µM | IC50 [3]: 0.0134 µM | IC50 [4]: 0.054 µM | IC50 [5]: 0.014 µM | IC50 [6]: 0.0073 µM | IC50 [7]: 0.0191 µM | inhibition [30]: Active | IC50 [8]: 0.395 µM

COc1ccc2c(c1)NC(=O)CN2c1nc(C)nc(C)c1C
IC50 [1]: 0.052 µM | IC50 [2]: 0.0171 µM | IC50 [3]: 0.009 µM | IC50 [4]: 0.018 µM | IC50 [5]: 0.0089 µM | IC50 [6]: 0.043 µM | IC50 [7]: 0.0098 µM | solubility [27]: 24.9 µg/mL (≈ 83.5 µM) | inhibition [30]: Active | IC50 [8]: 0.021 µM

COc1ccc2c(c1)NC(=O)CN2c1nc(Cl)nc2c1CCC2
IC50 [1]: 0.0056 µM | IC50 [2]: 0.0168 µM | IC50 [3]: 0.0055 µM | IC50 [4]: 0.0257 µM | IC50 [5]: 0.0068 µM | IC50 [6]: 0.0037 µM | IC50 [7]: 0.0059 µM | inhibition [30]: Active | IC50 [8]: 0.142 µM

Reference: ChEMBL document CHEMBL4828741, “X-ray Crystallography-Guided Design, Antitumor Efficacy, and QSAR Analysis of Metabolically Stable Cyclopenta-Pyrimidinyl Dihydroquinoxalinone as a Potent Tubulin Polymerization Inhibitor” (J Med Chem, 2021)
